Measurements published in patent publication US11167007B2, “FOXM1 modulators and uses thereof” (City of Hope, priority 2016, dated 2021).

What was measured:
[1] = target: T1, AR with a 65 glutamine tract (disease associated) (Homo sapiens, UniProt P10275, INS80QQQQQQQQQQQQQQQQQQQQQQQQQQQQQQQQQQQQQQQQQQ); assay: Luciferase reporter assay in HEK293 cells transfected with ARQ65; format: cell-based; details: HEK293, AR 65 glutamines, FIG. 2C
T1 construct: expressed in transfected cells; host or cells: HEK293
Text: (§1) Luciferase Reporter Assay. Cells were transfected using Lipofectamine Plus (Invitrogen) with a normalization plasmid (pRL-SV40, Promega) and an androgen responsive plasmid (MMTV-luciferase or PSA-luciferase) as described in Jones et al, ACS Chem Biol, 3(7):412-8 (2008), and, where indicated, with an shRNA plasmid targeting FOXM1 (adapted for mouse FOXM1 sequence targeting) a scrambled control shRNA plasmid, or ARQ24 or ARQ65 plasmids. Christensen et al, PLoS One, 8(1):e54556 (2013). The following day, cells and drugs were distributed to 96-well plates. 24 hours later, luciferase activity was assessed by a dual luciferase assay kit (Promega) on the Tecan plate reader. Samples were run in quadruplicates and a Student's t test was performed to determine significance, where p<0.05 was considered significant.
SBMA is caused by the activity of polyglutamine-expanded AR, and experiments were conducted to investigate the effects of thiostrepton against polyglutamine-expanded AR. AR-negative HEK293 cells were transfected with plasmids encoding AR with a 24 glutamine tract (normal) or with a 65 glutamine tract (disease associated). The polyglutamine-expanded AR was less transcriptionally active than the normal AR, as has been previously documented for such constructs. Kazemi-Esfarjani et al, Hum Mol Genet, 4:523-527 (1995).

FOXM1 = assay: Western blot of FOXM1 levels in GT1-7 CARY cells; format: cell-based, murine; details: relative to p84 loading control, FIG. 3C
Text: Western Blot. Cell lysates was separated on a 6% SDS page gel and transferred to a nitrocellulose membrane. The membrane was blocked for one hour in 5% skim milk dissolved in TBS-T and probed with the following antibodies ([…]): FoxM1 (rabbit, GeneTex), AR: 441 (mouse, Santa Cruz Biotechnology), β-catenin (rabbit 9562, Cell Signaling Technology), p84 (mouse, GeneTex) and actin (mouse, Santa Cruz Biotechnology). Horse radish peroxidase linked secondary antibodies were used along with ECL reagents for visualization. Western blots were quantified using Quantity One analysis software (BioRad).
It has been previously reported that thiostrepton causes decreased levels of FOXM1. Hegde et al, Nat Chem, 3(9):725-31 (2011); Gartel, Front Oncol, 3:150 (2013). […] The nuclear association between FOXM1 and β-catenin increases the transcriptional activity of both factors. Zhang et al, Cancer Cell, 20(4):427-42 (2011). β-catenin is a key AR coactivator in a variety of cells. Yang, J Biol Chem, 277(13):11336-44 (2002); Truica et al, Cancer Res, 60(17):4709-13 (2000). The inventors believed that thiostrepton could inhibit AR activity by limiting access to nuclear β-catenin via FOXM1 depletion. […] As expected, control actin protein was observed primarily in cytoplasmic fraction.

AR = target: T2, AR (Homo sapiens, UniProt P10275); assay: Androgen-responsive luciferase reporter assay in ReNcell CX neuronal cells; format: cell-based; set-up: endogenous in cells; host or cells: ReNcell CX; details: FIG. 2B
T2 sequence (P10275 1-920): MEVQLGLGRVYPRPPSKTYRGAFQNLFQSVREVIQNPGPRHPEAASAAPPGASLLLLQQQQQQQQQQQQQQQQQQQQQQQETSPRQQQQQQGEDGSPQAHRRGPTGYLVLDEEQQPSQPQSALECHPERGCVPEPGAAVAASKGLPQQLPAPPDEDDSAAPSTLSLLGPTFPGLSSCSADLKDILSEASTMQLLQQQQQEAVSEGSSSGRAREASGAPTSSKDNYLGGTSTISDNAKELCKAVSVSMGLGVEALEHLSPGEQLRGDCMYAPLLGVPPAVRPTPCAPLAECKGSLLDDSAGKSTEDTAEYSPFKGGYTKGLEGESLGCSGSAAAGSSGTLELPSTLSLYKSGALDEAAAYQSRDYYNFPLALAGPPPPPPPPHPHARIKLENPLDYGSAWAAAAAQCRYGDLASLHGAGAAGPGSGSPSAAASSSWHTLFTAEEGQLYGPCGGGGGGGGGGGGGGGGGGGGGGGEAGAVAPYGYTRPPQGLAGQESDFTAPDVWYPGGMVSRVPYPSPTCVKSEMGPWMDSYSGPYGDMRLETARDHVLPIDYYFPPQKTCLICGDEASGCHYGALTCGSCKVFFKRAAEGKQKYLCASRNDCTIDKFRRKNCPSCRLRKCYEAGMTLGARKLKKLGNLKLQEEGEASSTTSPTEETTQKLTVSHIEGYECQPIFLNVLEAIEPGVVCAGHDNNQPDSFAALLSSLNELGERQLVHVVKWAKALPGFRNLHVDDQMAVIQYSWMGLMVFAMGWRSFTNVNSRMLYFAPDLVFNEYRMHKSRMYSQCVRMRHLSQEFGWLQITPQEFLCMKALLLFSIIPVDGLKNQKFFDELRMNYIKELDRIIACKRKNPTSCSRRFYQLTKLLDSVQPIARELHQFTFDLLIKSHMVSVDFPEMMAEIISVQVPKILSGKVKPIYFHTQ
Text: as §1
The ability of thiostrepton to inhibit AR activity in additional neuronal cells, including ReNcell CX cells PC12 cells, and in rat L6 skeletal muscle cells was examined (FIG. 2B). Donato et al, BMC Neurosci, 8:36 (2007); Yaffe, Proc Natl Acad Sci USA, 61(2):477-83 (1968).

T1 sequence (P10275 with tags, fused parts or gaps with the stated changes): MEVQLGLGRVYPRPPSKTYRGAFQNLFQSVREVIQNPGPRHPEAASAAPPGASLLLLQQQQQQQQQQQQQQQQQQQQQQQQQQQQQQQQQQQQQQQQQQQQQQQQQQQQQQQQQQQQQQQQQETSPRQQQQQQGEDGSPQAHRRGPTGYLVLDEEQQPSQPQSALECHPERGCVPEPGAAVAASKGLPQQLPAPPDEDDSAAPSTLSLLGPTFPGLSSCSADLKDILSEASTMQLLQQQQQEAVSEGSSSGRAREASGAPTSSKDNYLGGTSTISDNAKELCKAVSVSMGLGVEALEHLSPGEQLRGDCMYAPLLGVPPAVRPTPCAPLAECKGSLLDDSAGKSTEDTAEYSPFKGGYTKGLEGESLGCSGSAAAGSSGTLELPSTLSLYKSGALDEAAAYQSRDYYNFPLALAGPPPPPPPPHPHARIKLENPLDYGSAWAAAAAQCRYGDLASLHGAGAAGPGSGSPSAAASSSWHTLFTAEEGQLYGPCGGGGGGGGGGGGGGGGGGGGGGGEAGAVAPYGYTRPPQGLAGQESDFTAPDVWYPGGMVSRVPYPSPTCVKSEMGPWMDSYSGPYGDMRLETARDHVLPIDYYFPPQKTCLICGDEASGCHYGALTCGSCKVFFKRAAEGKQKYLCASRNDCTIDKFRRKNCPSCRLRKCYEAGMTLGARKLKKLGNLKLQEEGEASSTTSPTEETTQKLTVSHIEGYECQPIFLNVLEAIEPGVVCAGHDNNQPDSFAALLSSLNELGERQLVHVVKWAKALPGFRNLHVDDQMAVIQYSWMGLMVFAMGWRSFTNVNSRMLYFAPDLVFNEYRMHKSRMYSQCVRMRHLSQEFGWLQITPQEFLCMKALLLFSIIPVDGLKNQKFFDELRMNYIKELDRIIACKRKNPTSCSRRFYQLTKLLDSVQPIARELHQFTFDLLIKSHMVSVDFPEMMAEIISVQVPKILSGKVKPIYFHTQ

## C=C(NC(=O)C(=C)NC(=O)c1csc(C2=N[C@@H]3c4csc(n4)[C@H]4NC(=O)c5csc(n5)[C@H]([C@](C)(O)[C@@H](C)O)NC(=O)[C@H]5CSC(=N5)/C(=C/C)NC(=O)[C@H]([C@@H](C)O)NC(=O)c5csc(n5)[C@]3(CC2)NC(=O)[C@H](C)NC(=O)C(=C)NC(=O)[C@H](C)NC(=O)[C@H]([C@@H](C)CC)N[C@@H]2C=Cc3c([C@H](C)O)cc(nc3[C@H]2O)C(=O)O[C@@H]4C)n1)C(N)=O [thiostrepton]
[1]
  inhibition of polyglutamine-expanded AR activity (luciferase): inhibited
FOXM1
  FOXM1 levels (Western blot): slightly decreased
AR
  inhibition of AR activity (luciferase): inhibited AR activity
